Source: US20070207119A1, “Histone deacetylase inhibitor enhancement of trail-induced apoptosis” (University of South Florida, priority 2002, published 2007)

Legend:
Jurkat cells = assay: Apoptosis of Jurkat cells, annexin V staining and flow cytometry; format: cell-based, human
Experimental: (§1) FIG. 2 LAQ824 induces accumulation in the G1 phase of the cell cycle and apoptosis. SKW 6.4 (A) and Jurkat (B) cells were treated with the indicated concentration of LAQ824 for 24 hours. Following this, the cell cycle status and the percentage of apoptotic cells were determined by flow cytometry. Values represent mean±SE of 3 experiments. FIG. 8 Treatment LAQ824 enhances Apo-2L/TRAIL induced DISC assembly, DISC activity and apoptosis. A. SKW 6.4 and B. Jurkat cells were treated with LAQ824 and/or Apo-2L/TRAIL at the indicated doses for 24 hours. Following this, the percentage of apoptotic cells was determined by annexin-V staining followed by flow cytometry. Values represent mean±SE of 3 experiments. C. Following treatment of Jurkat cells with LAQ824 (20 nM) and/or Apo-2L/TRAIL (10 ng/ml) for 24 hours, either the total cell lysates were utilized for immunoblot analyses of caspase-8, BID, caspase-3 and PARP, or the cytosolic (S100) fractions of cells were either used for immunoblot analysis of cytochrome (cyt) c, Omi or Smac (D), β-Actin expression was used as the loading control. E. SKW 6.4 cells were treated with 100 nM LAQ824 for 24 hours or 100 ng/ml Apo-2L/TRAIL for 2 hours, or LAQ824 followed by Apo-2L/TRAIL. […]

[1] = test system: HDAC activity in the HeLa cell nuclear extracts; settings: LAQ824 5 to 250 nM, previously reported; cited from earlier work
DR5 = assay: Cell-membrane expression of DR5 in primary AML cells, anti-DR5 staining and flow cytometry; format: cell-based, human; settings: primary AML sample, baseline 17.5%
Experimental: FIG. 11 LAQ824 induces histone acetylation, increases DR4 and DR5 levels, as well as down regulates FLIPS and FLIPL in primary AML cells. A. AML cells were treated with LAQ824 at the indicated concentrations for 24 hours. Following this histone protein were isolated, and the Histone H3 acetylation was detected by Western blot analysis using the anti-acetylated Histone H3 antibody. Total cell lysates of the untreated and LAQ824 treated cells were also used for immunoblot analyses of DR5, DR4, FLIPL and FLIPS. β-actin was used as the loading control. B. Bone marrow mononuclear cells from a patient with AML were exposed to 100 or 250 nM of LAQ824 for 24 hours. Following this, cell-membrane expression of DR5 was determined by staining with anti-DR5 antibody and evaluated by flow cytometry. Flow cytometric histograms in panels a to d are from cells treated with: a. Isotype control, b. untreated control cells, c. 100 nM LAQ824 and d. 250 nM LAQ824.
The sensitivity of fresh AML cells procured from patients with relapsed AML to Apo-2L/TRAIL and/or LAQ824-induced apoptosis was next to be determined. […] In every sample evaluated, co-treatment with LAQ824 and Apo-2L/TRAIL induced more apoptosis than treatment with either agent alone. […] Based on the availability adequate sample, we also determined the effect of LAQ824 on the determinants of Apo-2L/TRAIL-induced DISC.

FAS mRNA = assay: Multi-probe RNase protection assay, FAS mRNA; format: cell-based, human; settings: SKW 6.4 and Jurkat cells, 100 nM LAQ824, 8 or 16 hours; densitometry, GAPDH mRNA as loading control
Experimental: (§2) FIG. 6 Treatment with LAQ824 increases the mRNA expression of DR4 and DR5, and increases the association of the DR5 gene with the acetylated histone H3 and H4 in chromatin. A. After exposure of SKW 6.4 and Jurkat cells to 100 nM LAQ824 for the indicated time intervals (hours), mRNA expression levels of the indicated genes were determined using a Riboquant Multi-Probe RNase Protection Assay. B. Soluble chromatin was immunoprecipitated with anti-acetylated histone H3 and H4 antibodies. PCR primers for the DR5 promoter were used to amplify the DNA isolated from the immunoprecipitates. PCR products were scanned and quantified. […] The ratio between input DNA and precipitated DNA was calculated for each treatment.
(§3) A RiboQuant Multi-Probe RNase Protection Assay System was used according to the manufacturer's instructions (BD/PharMingen, San Diego, Calif.), and as previously described. […] The remaining probes were resolved on 5% denaturing polyacrylamide gel and analyzed by autoradiography.
(§4) Next, the effect of LAQ824 on the mRNA levels of c-FLIPL, DR5, DR4 and Apo-2L/TRAI, utilizing a multi-probe RNAse protection assay and estimated by densitometry with GAPDH mRNA as the loading control was determined. […] In contrast to the increase in the DR5 and DR4 mRNA levels, exposure to LAQ824 for eight hours inhibited the mRNA level of c-FLIPL by 75%, as determined by an RT-PCR assay (FIG. 7A). […]

DR4 mRNA = assay: Multi-probe RNase protection assay, DR4 mRNA; format: cell-based, human; settings: only in SKW 6.4 cells, 100 nM LAQ824, 8 or 16 hours
Experimental: as §2, §3, §4

SKW 6.4 cells = assay: Apoptosis of SKW 6.4 cells, annexin V staining and flow cytometry; format: cell-based, human; settings: 10 to 200 nM LAQ824, 24 hours, less than in Jurkat
Experimental: as §1

DR5 mRNA = assay: Multi-probe RNase protection assay, DR5 mRNA; format: cell-based, human; settings: SKW 6.4 and Jurkat cells, 100 nM LAQ824, 8 or 16 hours; densitometry, GAPDH mRNA as loading control
Experimental: as §2, §3, §4

Compound: O=C(/C=C/c1ccc(CN(CCO)CCc2c[nH]c3ccccc23)cc1)NO [LAQ824]
- apoptosis, % of Jurkat cells (Jurkat cells; 100 or 200 nM LAQ824, 24 hours, data not shown): more than 90%
- induction of apoptosis (annexin V positive) (Jurkat cells; Jurkat cells, 10 to 200 nM LAQ824, 24 hours, more than in SKW 6.4): induced apoptosis in a dose dependent manner
- in vitro HDAC activity [1]: inhibits the in vitro HDAC activity in a dose dependent manner
- DR5 expression on the cell membrane, % of cells (DR5; 100 nM LAQ824, 24 hours): 33.2%
- DR5 expression on the cell membrane, % of cells (DR5; 250 nM LAQ824, 24 hours): 62.4%
- increase of mRNA expression of FAS (FAS mRNA): 1.5 fold
- increase of DR4 mRNA levels (DR4 mRNA): 2.2 fold
- induction of apoptosis (annexin V positive) (SKW 6.4 cells): induced apoptosis in a dose dependent manner
- increase of mRNA expression of DR5 (DR5 mRNA): 2.4 fold
